Type in all cases: cell-based
One experiment deals with human TRPV3 (Homo sapiens (Human), UniProt Q8NET8). Description: Radiometric calcium selectivity assay, CHO cells expressing human TRPV3 (2-aminoethoxydiphenyl borate). As to conditions: read-out: IC50 values hTRPV3. Here is the method: (§1) For selectivity screening, CHO cells stably expressing human TRPV1, human TRPV3, human TRPV4, or human TRPM8 were generated in-house and maintained in DMEM F-12 supplemented with 10% FBS and G418. All the cell types were cultured at 37° C. in humidified air containing 5% CO2. Radiometric calcium assay was performed as described above with some minor modifications. Assay was carried out in total volume of 200 μl at 30° C. (for TRPV1), 32° C. (for TRPV3) and 25° C. (for TRPV4 and TRPM8). Agonists used for selectivity screening of the different TRPs are: Capsaicin for TRPV1,2-aminoethoxydiphenyl borate for TRPV3, 4α-phorbol 12,13-didecanoate for TRPV4 and Icilin for TRPM8. After 2-5 minutes of agonist treatment, drug was washed and lysed in lysis buffer as mentioned above. Radioactivity in the lysate was measured in Packard Top count after addition of liquid scintillant.
Chain of human TRPV3 (Q8NET8 whole entry): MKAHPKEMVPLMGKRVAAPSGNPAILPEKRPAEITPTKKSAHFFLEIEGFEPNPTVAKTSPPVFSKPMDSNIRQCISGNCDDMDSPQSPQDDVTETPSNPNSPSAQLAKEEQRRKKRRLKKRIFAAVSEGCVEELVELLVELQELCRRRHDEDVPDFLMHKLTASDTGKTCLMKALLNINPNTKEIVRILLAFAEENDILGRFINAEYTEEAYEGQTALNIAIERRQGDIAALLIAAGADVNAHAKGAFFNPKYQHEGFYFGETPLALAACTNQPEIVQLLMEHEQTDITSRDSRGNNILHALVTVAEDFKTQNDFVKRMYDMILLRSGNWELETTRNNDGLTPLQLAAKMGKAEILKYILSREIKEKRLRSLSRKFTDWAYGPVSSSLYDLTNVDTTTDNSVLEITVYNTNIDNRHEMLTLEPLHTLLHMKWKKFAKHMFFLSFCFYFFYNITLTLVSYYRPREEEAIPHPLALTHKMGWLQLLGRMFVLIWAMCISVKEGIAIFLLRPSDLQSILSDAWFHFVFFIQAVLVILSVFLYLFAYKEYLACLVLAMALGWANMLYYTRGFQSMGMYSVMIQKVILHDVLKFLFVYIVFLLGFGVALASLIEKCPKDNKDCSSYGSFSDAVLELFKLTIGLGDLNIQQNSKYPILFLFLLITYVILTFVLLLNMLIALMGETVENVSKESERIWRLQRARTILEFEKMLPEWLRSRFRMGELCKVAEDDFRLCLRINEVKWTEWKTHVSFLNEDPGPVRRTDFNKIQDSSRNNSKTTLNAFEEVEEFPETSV

The target of another experiment is human TRPV1 (Homo sapiens (Human), UniProt Q8NER1). Description: Radiometric calcium selectivity assay, CHO cells expressing human TRPV1 (capsaicin). As to conditions: read-out: IC50 values hTRPV1. Here is the method: as §1
Chain of human TRPV1 (Q8NER1 whole entry): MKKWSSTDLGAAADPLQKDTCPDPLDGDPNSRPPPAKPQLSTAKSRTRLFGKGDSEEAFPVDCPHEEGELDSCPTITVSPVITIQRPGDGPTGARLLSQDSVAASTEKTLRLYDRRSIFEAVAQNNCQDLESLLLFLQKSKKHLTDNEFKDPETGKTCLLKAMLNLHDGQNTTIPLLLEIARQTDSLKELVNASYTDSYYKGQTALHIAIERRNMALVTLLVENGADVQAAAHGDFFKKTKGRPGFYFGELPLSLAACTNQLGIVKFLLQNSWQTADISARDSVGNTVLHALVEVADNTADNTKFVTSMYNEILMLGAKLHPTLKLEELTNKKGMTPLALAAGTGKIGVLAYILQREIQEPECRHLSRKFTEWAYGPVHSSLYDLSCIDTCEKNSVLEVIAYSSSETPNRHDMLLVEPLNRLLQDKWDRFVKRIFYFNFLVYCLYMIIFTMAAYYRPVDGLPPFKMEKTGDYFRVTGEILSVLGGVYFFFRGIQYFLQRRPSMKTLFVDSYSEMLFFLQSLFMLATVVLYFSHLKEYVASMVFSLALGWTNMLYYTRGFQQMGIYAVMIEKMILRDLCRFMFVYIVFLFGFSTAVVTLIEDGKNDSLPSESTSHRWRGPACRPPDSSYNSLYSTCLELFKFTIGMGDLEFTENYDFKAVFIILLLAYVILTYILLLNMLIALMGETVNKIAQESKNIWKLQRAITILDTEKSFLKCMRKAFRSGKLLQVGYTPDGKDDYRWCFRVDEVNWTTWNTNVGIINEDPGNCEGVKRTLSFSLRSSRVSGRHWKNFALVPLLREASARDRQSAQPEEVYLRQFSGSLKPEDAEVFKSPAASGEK
The next experiment concerns the target human TRPV4 (Homo sapiens (Human), UniProt Q9HBA0). Put plainly: Radiometric calcium selectivity assay, CHO cells expressing human TRPV4 (4α-phorbol 12,13-didecanoate). As to conditions: read-out: IC50 values hTRPV4. As to the method: as §1
A further experiment has as its target human TRPA1 (Homo sapiens (Human), UniProt O75762). Description: 45Calcium uptake assay, AITC induced, human TRPA1 expressing CHO cells. Particulars: AITC 30 micromolar, read-out: IC50 values hTRPA1. As to the method: As contemplated herein, the IC50 value is measured by the following method. The inhibition of TRPA1 receptor activation is measured as inhibition of allylisothiocyanate (AITC) induced cellular uptake of radioactive calcium. Test solution of test compound is prepared in a suitable solvent using appropriate method. Human TRPA1 expressing CHO cells are grown in suitable medium. Cells are treated with test compounds followed by addition of AITC. Cells are washed and lysed. Radioactivity in the lysate is measured in Packard Top count after addition of liquid scintillant. The concentration response curves for compounds are plotted as a % of maximal response obtained in the absence of test antagonist, and the IC50 values are calculated from such concentration response curve by nonlinear regression analysis using GraphPad PRISM software.
The illustrative TRPA1 antagonists of the present invention were screened for TRPA1 activity according to a modified procedure described in Tóth, A. et al., Life Sciences 2003, 73, 487-498. The screening of the compounds can be carried out by other methods and procedures known to persons skilled in the art.
Screening for TRPA1 Antagonist Using the 45Calcium Uptake Assay:
The inhibition of TRPA1 receptor activation was measured as inhibition of allylisothiocyanate (AITC) induced cellular uptake of radioactive calcium. Test compounds were dissolved in DMSO to prepare 10 mM stock solution and then diluted using plain medium with 0.1% BSA and 1.8 mM CaCl2 to get desired concentration. Final concentration of DMSO in the reaction was 0.5% (v/v). Human TRPA1 expressing CHO cells were grown in F-12 DMEM medium with 10% FBS, 1% penicillin-streptomycin solution, and 400 μg/ml of G-418. Cells were seeded 24 h prior to the assay in 96 well plates so as to get ˜50,000 cells per well on the day of experiment. Cells were treated with test compounds for 10 min followed by addition of AITC at a final concentration of 30 micromolar and 5 μCi/ml 45Ca+2 for 3 min at 25° C. Cells were washed and lysed using buffer containing 1% Triton X-100, 0.1% deoxycholate and 0.1% SDS. Radioactivity in the lysate was measured in Packard Top count after addition of liquid scintillant.
Concentration response curves were plotted as a % of maximal response obtained in the absence of test antagonist. IC50 value was calculated from concentration response curve by nonlinear regression analysis using GraphPad PRISM software.

In another experiment the target is human TRPM8 (Homo sapiens (Human), UniProt Q7Z2W7). Description: Radiometric calcium selectivity assay, CHO cells expressing human TRPM8 (icilin). As to conditions: read-out: IC50 values hTRPM8. As to the method:
as §1

SMILES strings stand for the structures.

Chain of human TRPA1 (O75762 whole entry): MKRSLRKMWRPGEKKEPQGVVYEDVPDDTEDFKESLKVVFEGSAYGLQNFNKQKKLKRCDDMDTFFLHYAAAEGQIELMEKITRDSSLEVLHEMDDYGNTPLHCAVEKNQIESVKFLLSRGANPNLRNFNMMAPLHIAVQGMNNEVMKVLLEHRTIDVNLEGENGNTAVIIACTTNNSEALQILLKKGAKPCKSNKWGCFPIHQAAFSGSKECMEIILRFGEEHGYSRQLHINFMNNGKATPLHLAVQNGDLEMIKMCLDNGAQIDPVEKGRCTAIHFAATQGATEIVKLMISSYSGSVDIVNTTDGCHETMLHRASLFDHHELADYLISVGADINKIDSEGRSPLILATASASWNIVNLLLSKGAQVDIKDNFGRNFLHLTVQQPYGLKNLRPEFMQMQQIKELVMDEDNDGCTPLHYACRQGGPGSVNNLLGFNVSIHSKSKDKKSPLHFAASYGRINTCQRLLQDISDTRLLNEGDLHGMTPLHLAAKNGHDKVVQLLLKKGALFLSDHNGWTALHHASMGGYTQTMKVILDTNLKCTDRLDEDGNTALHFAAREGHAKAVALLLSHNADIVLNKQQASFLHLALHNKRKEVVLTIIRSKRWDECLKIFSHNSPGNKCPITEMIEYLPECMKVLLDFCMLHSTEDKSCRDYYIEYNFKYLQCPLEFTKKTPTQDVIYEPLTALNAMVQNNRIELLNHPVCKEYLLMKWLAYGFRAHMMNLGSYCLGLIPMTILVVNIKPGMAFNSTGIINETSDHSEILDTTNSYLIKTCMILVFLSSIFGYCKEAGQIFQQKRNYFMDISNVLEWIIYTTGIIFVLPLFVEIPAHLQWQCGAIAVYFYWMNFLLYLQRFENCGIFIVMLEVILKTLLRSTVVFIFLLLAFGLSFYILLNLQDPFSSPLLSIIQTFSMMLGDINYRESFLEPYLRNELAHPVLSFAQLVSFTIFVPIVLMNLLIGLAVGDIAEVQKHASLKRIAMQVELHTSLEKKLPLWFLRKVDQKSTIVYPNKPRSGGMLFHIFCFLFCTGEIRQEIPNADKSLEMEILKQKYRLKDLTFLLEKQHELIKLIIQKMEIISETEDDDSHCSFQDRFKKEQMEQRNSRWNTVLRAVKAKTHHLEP
Chain of human TRPV4 (Q9HBA0 whole entry): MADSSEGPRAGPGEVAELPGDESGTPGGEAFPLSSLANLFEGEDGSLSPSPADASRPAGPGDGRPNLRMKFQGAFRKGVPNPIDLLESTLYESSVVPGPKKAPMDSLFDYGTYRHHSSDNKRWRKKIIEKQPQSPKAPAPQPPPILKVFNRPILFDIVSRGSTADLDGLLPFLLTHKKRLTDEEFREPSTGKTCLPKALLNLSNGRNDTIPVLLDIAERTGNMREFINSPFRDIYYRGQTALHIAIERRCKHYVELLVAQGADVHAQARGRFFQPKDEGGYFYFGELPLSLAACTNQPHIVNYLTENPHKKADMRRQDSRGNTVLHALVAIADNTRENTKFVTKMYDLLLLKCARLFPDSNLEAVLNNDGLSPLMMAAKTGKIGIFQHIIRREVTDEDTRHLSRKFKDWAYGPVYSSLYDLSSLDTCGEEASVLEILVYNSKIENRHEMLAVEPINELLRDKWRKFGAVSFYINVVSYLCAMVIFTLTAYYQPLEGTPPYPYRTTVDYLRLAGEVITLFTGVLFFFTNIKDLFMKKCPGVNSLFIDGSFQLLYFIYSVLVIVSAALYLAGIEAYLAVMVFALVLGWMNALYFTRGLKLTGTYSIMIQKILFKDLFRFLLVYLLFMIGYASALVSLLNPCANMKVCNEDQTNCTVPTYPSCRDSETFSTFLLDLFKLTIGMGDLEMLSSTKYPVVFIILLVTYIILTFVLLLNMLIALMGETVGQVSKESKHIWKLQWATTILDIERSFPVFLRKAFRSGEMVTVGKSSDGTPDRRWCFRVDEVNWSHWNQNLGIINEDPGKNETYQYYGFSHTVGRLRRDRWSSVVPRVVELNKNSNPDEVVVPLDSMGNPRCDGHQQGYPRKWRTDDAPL
Chain of human TRPM8 (Q7Z2W7 whole entry): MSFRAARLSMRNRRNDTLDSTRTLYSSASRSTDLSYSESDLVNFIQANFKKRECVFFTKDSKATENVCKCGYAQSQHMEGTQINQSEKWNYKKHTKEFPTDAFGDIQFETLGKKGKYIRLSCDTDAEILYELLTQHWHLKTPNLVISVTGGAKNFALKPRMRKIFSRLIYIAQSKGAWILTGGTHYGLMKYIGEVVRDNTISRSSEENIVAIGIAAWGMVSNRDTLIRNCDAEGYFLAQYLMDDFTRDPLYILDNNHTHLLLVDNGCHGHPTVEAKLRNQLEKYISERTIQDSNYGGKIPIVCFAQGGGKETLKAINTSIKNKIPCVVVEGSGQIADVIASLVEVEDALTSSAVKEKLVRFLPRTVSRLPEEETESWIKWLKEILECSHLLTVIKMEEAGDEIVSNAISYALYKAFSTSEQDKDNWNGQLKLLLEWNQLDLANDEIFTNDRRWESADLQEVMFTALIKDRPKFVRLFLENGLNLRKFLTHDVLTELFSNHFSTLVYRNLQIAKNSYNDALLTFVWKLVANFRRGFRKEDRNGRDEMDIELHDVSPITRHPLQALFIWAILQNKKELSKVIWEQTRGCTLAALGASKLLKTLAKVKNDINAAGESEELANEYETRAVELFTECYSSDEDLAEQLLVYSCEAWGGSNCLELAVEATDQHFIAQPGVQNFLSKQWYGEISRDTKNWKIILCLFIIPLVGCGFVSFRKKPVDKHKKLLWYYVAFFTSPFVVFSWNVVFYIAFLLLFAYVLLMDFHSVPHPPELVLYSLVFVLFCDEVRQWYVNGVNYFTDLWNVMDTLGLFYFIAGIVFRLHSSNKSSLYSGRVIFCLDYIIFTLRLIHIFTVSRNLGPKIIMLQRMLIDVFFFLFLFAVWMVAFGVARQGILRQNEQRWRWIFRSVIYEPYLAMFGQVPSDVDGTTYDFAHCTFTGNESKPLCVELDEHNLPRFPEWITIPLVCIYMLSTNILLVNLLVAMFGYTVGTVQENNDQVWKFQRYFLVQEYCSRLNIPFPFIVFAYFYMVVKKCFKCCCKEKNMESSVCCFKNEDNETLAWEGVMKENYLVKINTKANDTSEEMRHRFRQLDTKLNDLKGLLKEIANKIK

On to `Cc1sc2c(c1CC(=O)Nc1nc(-c3ccc(Cl)c(Cl)c3)cs1)c(=O)n(C)c(=O)n2C` [Compound 47], for which the IC50 (as a rule, the point on the concentration scale where inhibition reaches its midpoint) is > 10 µM at human TRPV3; > 10 µM at human TRPV1; > 1 µM on human TRPV4; 0.0336 µM on human TRPA1; > 10 µM on human TRPM8.

For `CCc1sc2c(c1CC(=O)Nc1nc(-c3cc(F)c(OC(F)F)c(F)c3)cs1)c(=O)n(C)c(=O)n2C` [Compound 48], the IC50 was > 10 µM at human TRPV3; > 10 µM at human TRPV1; > 10 µM at human TRPV4; 0.0181 µM at human TRPA1; > 10 µM at human TRPM8.

In the case of `CCc1sc2c(c1CC(=O)Nc1nc(-c3cc(F)c(OCC(F)(F)F)c(F)c3)cs1)c(=O)n(C)c(=O)n2C` [Compound 49], the IC50 is > 10 µM on human TRPV3; > 10 µM on human TRPV1; > 10 µM on human TRPV4; 0.00398 µM at human TRPA1; > 10 µM on human TRPM8.

Consider `CCc1sc2c(c1CC(=O)Nc1nc(-c3ccc(C(F)(F)F)c(F)c3)cs1)c(=O)n(C)c(=O)n2C` [Compound 50], for which the IC50 at human TRPV3 is > 1 µM; at human TRPV1, > 10 µM; at human TRPV4 it was 8.89 µM; at human TRPA1, 0.0167 µM; at human TRPM8, > 10 µM.

For `CC(C)COc1c(F)cc(-c2csc(NC(=O)Cc3coc4c3c(=O)n(C)c(=O)n4C)n2)cc1F` [Compound 53], the IC50 on human TRPV3 was > 10 µM; at human TRPV1 it was > 10 µM; at human TRPV4 it was > 1 µM; on human TRPA1 it was 0.0182 µM; on human TRPM8 it was > 10 µM.

As for `Cn1c(=O)c2c(CC(=O)Nc3nc(-c4ccc(C(F)(F)F)c(F)c4)cs3)coc2n(C)c1=O` [Compound 54], the IC50 at human TRPV3 is > 1 µM; at human TRPV1 it was > 10 µM; at human TRPV4 it was > 1 µM; on human TRPA1, 0.0177 µM; on human TRPM8, > 10 µM.

Take `Cn1c(=O)c2c(CC(=O)Nc3nc(-c4cc(F)cc(C(F)(F)F)c4)cs3)coc2n(C)c1=O` [Compound 55]: the IC50 at human TRPV3 is > 1 µM; on human TRPV1 it was > 10 µM; at human TRPV4, > 1 µM; at human TRPA1, 0.00215 µM; on human TRPM8 it was > 10 µM.

In the case of `Cn1c(=O)c2c(CC(=O)Nc3nc(-c4cc(F)c(CCC(F)(F)F)c(F)c4)cs3)coc2n(C)c1=O` [Compound 56], the IC50 at human TRPV3 is > 10 µM; on human TRPV1 it was > 10 µM; on human TRPV4, > 1 µM; at human TRPA1, 0.00338 µM; at human TRPM8, > 10 µM.

Consider `Cn1c(=O)c2c(CC(=O)Nc3nc(-c4cc(Cl)c(OCC(F)(F)F)c(Cl)c4)cs3)coc2n(C)c1=O` [Compound 57], for which the IC50 is > 10 µM on human TRPV3; > 10 µM at human TRPV1; > 1 µM at human TRPV4; 0.00145 µM on human TRPA1; > 10 µM at human TRPM8.

For the compound `Cn1c(=O)c2c(CC(=O)Nc3nc(-c4ccc(F)c(C(F)(F)F)c4)cs3)coc2n(C)c1=O` [Compound 58], the half-maximal inhibitory concentration (IC50) was > 1 µM at human TRPV3; > 10 µM at human TRPV1; > 1 µM at human TRPV4; 0.0119 µM at human TRPA1; > 10 µM at human TRPM8.

Turning to `Cn1c(=O)c2c(CC(=O)Nc3nc(-c4cccc(C(F)(F)F)c4F)cs3)coc2n(C)c1=O` [Compound 59], the IC50 was > 1 µM on human TRPV3; > 10 µM at human TRPV1; 2.83 µM on human TRPV4; 0.00221 µM on human TRPA1; > 10 µM at human TRPM8.

Regarding `Cn1c(=O)c2c(CC(=O)Nc3nc(-c4cc(F)c(OCC(F)(F)F)c(Cl)c4)cs3)coc2n(C)c1=O` [Compound 60], the IC50 was > 10 µM on human TRPV3; > 10 µM on human TRPV1; > 1 µM at human TRPV4; 0.00354 µM on human TRPA1; > 10 µM at human TRPM8.

Regarding `Cc1oc2c(c1CC(=O)Nc1nc(-c3cc(F)cc(C(F)(F)F)c3)cs1)c(=O)n(C)c(=O)n2C` [Compound 61], the IC50 is > 10 µM on human TRPV3; > 10 µM on human TRPV1; > 10 µM on human TRPV4; 0.00293 µM on human TRPA1; > 10 µM on human TRPM8.

In the case of `Cc1oc2c(c1CC(=O)Nc1nc(-c3ccc(Cl)c(OC(F)(F)F)c3)cs1)c(=O)n(C)c(=O)n2C` [Compound 63], the half-maximal inhibitory concentration (IC50) at human TRPV3 is > 1 µM; at human TRPV1, > 10 µM; on human TRPV4, > 10 µM; at human TRPA1, 0.00904 µM; at human TRPM8 it was > 10 µM.

`Cc1oc2c(c1CC(=O)Nc1nc(-c3ccc(F)c(C(F)(F)F)c3F)cs1)c(=O)n(C)c(=O)n2C` [Compound 64]: the IC50 was > 1 µM at human TRPV3; > 10 µM at human TRPV1; > 10 µM on human TRPV4; 0.00452 µM on human TRPA1; > 10 µM at human TRPM8.

Turning to `Cc1oc2c(c1CC(=O)Nc1nc(-c3ccc(C(F)(F)F)cc3F)cs1)c(=O)n(C)c(=O)n2C` [Compound 65], the IC50 was > 1 µM on human TRPV3; > 10 µM at human TRPV1; > 1 µM on human TRPV4; 0.00665 µM on human TRPA1; > 10 µM at human TRPM8.

Turning to `Cc1oc2c(c1CC(=O)Nc1nc(-c3cc(F)c(OCC(C)(C)C)c(F)c3)cs1)c(=O)n(C)c(=O)n2C` [Compound 66], the IC50 on human TRPV3 is > 10 µM; on human TRPV1, > 10 µM; at human TRPV4 it was > 10 µM; on human TRPA1, 0.00363 µM; on human TRPM8, > 10 µM.

Turning to `Cc1oc2c(c1CC(=O)Nc1nc(-c3cccc(C(F)(F)F)c3F)cs1)c(=O)n(C)c(=O)n2C` [Compound 67], the IC50 on human TRPV3 is > 1 µM; at human TRPV1 it was > 10 µM; on human TRPV4, > 10 µM; at human TRPA1, 0.0136 µM; on human TRPM8, > 10 µM.

For `Cc1oc2c(c1CC(=O)Nc1nc(-c3ccc(F)c(OC(F)(F)F)c3)cs1)c(=O)n(C)c(=O)n2C` [Compound 68], the IC50 on human TRPV3 is > 1 µM; at human TRPV1 it was > 10 µM; at human TRPV4, > 10 µM; at human TRPA1 it was 0.00484 µM; at human TRPM8, > 10 µM.

Consider `Cc1oc2c(c1CC(=O)Nc1nc(-c3ccc(F)c(C(F)(F)F)c3)cs1)c(=O)n(C)c(=O)n2C` [Compound 69], for which the half-maximal inhibitory concentration (IC50) is > 1 µM on human TRPV3; > 10 µM on human TRPV1; > 1 µM on human TRPV4; 0.0071 µM on human TRPA1; > 10 µM on human TRPM8.

For the compound `Cc1oc2c(c1CC(=O)Nc1nc(-c3ccc(OC(F)(F)F)c(F)c3)cs1)c(=O)n(C)c(=O)n2C` [Compound 70], the IC50 is > 1 µM at human TRPV3; > 10 µM at human TRPV1; > 1 µM at human TRPV4; 0.0126 µM on human TRPA1; > 10 µM on human TRPM8.

With `Cc1oc2c(c1CC(=O)Nc1nc(-c3ccc(Cl)c(C(F)(F)F)c3)cs1)c(=O)n(C)c(=O)n2C` [Compound 71], the half-maximal inhibitory concentration (IC50) on human TRPV3 was > 1 µM; at human TRPV1, > 10 µM; at human TRPV4, > 10 µM; on human TRPA1, 0.00318 µM; at human TRPM8 it was > 10 µM.

Consider `Cc1oc2c(c1CC(=O)Nc1nc(-c3cc(F)c(C(F)(F)F)c(F)c3)cs1)c(=O)n(C)c(=O)n2C` [Compound 72], for which the IC50 on human TRPV3 was > 1 µM; at human TRPV1, > 10 µM; at human TRPV4, > 1 µM; at human TRPA1, 0.00416 µM; at human TRPM8 it was > 10 µM.

For `Cc1oc2c(c1CC(=O)Nc1nc(-c3ccc(OCC(F)(F)F)c(Cl)c3)cs1)c(=O)n(C)c(=O)n2C` [Compound 74], the half-maximal inhibitory concentration (IC50) at human TRPV3 is > 10 µM; at human TRPV1, > 10 µM; on human TRPV4, > 10 µM; at human TRPA1, 0.00529 µM; at human TRPM8, > 10 µM.

Values taken from patent US9186360B2, “Treatment of respiratory disorders using TRPA1 antagonists” (GLENMARK PHARMACEUTICALS S.A., priority 2011, dated 2015).
